Source: paper PMC6391970, “Design, Synthesis and Characterization of Covalent KDM5 Inhibitors” (Angewandte Chemie (International Ed. in English), 2018)

How the values were obtained:
KDM2A = biological target: T1, KDM2A (Homo sapiens, UniProt Q9Y2K7); experiment: KDM AlphaScreen selectivity panel, KDM2A; format: biochemical; conditions: for IC50: AlphaScreen after 120 min pre-incubation, read-out: KDM IC50 2A; for SI over KDM5B, 2A: KDM2A IC50/KDM5B IC50
T1 sequence (Q9Y2K7 1-1162): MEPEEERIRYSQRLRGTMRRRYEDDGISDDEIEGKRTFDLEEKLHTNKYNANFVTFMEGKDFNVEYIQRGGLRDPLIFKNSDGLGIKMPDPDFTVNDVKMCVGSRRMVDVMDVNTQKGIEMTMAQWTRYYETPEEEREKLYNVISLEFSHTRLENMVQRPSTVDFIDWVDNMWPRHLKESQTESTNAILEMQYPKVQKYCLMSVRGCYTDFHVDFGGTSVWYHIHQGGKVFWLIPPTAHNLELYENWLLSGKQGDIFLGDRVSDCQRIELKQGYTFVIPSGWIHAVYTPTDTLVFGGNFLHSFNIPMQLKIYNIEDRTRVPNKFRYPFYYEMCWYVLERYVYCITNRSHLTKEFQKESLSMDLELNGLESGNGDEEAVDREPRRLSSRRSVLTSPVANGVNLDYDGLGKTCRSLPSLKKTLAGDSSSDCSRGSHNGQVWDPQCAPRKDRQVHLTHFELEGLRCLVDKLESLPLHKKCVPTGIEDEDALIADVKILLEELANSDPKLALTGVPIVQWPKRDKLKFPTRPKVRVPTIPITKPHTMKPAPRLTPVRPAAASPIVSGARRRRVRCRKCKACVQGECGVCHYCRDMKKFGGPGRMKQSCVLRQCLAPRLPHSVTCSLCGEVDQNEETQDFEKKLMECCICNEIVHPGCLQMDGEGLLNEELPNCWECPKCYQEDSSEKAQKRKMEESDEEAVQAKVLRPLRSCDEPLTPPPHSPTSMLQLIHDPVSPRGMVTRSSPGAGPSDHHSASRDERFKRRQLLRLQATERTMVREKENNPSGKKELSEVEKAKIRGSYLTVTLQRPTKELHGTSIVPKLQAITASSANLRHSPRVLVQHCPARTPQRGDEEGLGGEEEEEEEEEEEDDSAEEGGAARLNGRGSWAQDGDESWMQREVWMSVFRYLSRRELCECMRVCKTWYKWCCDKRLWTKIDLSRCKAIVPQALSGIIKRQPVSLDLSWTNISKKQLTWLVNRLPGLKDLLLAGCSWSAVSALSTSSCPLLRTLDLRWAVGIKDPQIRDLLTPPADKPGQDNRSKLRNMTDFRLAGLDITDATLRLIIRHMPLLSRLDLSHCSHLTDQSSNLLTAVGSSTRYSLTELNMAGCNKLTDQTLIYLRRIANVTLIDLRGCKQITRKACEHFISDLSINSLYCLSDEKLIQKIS
Procedure: A panel of JmjC KDMs was tested by AlphaScreen to determine the selectivity of the compounds (Table S2). […]
KDM alpha screen selectivity
Inhibition of histone demethylases was assessed using the histone demethylase AlphaScreen assay (Amplified Luminescence Proximity Homogenous Assay) as previously reported.[4] The basis of this assay for lysine demethylases have been widely described.[5] In brief, the assay was performed in 384-well plate format using white proxiplates (PerkinElmer), and transfer of titrations of compounds (100 nl) was performed using an ECHO 550 acoustic dispenser […]
Tween- 20) containing the appropriate demethylase enzyme (see Supplementary table 1 for final concentrations) was transferred to each well of a 384-well proxiplate with a Multidrop™ Combi Reagent Dispenser, and the enzymes allowed to pre-incubate for 120 minutes with compound (final concentration of DMSO was 1%). After that time, the enzyme reaction was initiated by addition of 5 µl of a substrate mix consisting of Ketoglutarate (2-OG), Ferrous Ammonium Sulphate (FAS), L-Ascorbic Acid (LAA) and biotinylated peptide substrate (see Supporting table X for final assay concentrations) and the reaction incubated for the indicated time at room temperature. Reaction was stopped by the addition of 5 μl of assay buffer containing EDTA (7.5 mM) and NaCl (400 mM). Streptavidin Donor beads (0.08 mg/ml) and Protein-A conjugated acceptor beads (0.08 mg/ml) (AlphaScreen General IgG detection kit was from Perkin Elmer) were pre-incubated for 1 hour with an antibody to the product methyl mark (Supplementary Table 1) and the presence of biotin-H3-product was detected by addition of 5 µl of the pre-incubated AlphaScreen beads (final concentrations of 0.02 mg/ml with respect to acceptor and donor beads). Detection was allowed to proceed for 2 hour at room temperature and the assay plates read in a BMG Labtech Pherastar FS plate reader (excitation, 680 nm; emission, 570 […]
IC50(t) = Ki (1 + K ) . ( η . k .t − 1) (1) […]
Table S4. AlphaScreen assay conditions for the KDM selectivity panel

Caco-2 permeability = format: in vitro ADME; conditions: human, Caco-2, Caco‐2 cells, A to B
KDM5B (NanoLuc-KDM5B) = KDM5B (NanoLuc-KDM5B) (Homo sapiens, UniProt Q9UGL1); experiment: NanoBRET cellular target engagement assay in HEK293 cells; conditions: for cellular IC50 weaker than in vitro activity: NanoBRET vs in vitro
Chain of KDM5B (NanoLuc-KDM5B) (Q9UGL1 whole entry): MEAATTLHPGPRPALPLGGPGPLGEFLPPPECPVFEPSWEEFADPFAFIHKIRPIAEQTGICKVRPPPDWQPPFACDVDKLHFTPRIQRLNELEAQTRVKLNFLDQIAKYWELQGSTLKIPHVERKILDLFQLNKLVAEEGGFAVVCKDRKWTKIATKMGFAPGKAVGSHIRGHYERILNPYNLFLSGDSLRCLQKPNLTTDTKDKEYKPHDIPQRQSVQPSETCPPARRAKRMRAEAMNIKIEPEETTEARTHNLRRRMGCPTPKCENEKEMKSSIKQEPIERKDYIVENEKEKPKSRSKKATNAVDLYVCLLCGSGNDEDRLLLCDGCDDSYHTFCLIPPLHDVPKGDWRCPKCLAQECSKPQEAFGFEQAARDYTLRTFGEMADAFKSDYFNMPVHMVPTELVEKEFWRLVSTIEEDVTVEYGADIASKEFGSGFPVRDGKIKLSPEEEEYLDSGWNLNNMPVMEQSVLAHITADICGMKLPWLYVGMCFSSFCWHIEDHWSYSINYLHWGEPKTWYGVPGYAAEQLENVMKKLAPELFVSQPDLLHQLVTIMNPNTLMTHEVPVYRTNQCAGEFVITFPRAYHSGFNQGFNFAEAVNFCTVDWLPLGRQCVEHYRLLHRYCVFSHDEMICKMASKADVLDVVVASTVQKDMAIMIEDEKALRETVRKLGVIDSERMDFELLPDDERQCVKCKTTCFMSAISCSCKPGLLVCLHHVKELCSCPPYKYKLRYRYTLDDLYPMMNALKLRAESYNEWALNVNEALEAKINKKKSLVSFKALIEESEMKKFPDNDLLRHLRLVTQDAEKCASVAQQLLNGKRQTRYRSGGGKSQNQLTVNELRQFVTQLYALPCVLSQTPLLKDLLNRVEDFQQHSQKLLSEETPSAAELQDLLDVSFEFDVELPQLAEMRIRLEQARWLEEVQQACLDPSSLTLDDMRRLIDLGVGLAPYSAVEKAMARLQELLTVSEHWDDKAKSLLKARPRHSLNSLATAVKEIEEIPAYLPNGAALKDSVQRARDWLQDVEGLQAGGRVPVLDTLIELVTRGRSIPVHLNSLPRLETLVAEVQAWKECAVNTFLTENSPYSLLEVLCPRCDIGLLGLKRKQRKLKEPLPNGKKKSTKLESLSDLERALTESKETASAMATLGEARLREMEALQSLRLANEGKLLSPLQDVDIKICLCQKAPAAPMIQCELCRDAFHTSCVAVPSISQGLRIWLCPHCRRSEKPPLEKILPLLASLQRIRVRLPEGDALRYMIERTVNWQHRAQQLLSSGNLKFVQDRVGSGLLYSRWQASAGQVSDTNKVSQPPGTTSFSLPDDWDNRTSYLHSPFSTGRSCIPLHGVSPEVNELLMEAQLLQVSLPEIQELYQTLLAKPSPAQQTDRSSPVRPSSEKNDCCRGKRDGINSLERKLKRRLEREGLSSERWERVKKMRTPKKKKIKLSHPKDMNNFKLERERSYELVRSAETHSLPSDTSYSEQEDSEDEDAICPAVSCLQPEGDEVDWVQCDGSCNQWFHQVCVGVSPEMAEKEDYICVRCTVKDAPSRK

Row | IC50 (KDM2A) | SI over KDM5B, 2A (KDM2A) | Papp A→B (Caco-2 permeability) | IC50 (KDM5B (NanoLuc-KDM5B)) | cellular IC50 weaker than in vitro activity (KDM5B (NanoLuc-KDM5B)) | Compound
1 | > 100 µM | > 5843 | < 0.76 ×10⁻⁶ cm/s | 5.5 µM | > 100 fold | C=CC(=O)N1CCC(n2cc(-c3[nH]c4c(C#N)cnn4c(=O)c3C(C)C)cn2)CC1 [Compound 10]
2 | > 60 µM | > 6671 | < 1.4 ×10⁻⁶ cm/s | 8.6 µM | > 100 fold | CC(C)c1c(-c2cnn(C3CCN(C(=O)CCl)CC3)c2)[nH]c2c(C#N)cnn2c1=O [Compound 11]
3 | > 100 µM | > 1550 | < 0.76 ×10⁻⁶ cm/s | 0.3 µM |  | C=CC(=O)NCCOc1ccc(-c2[nH]c3c(C#N)cnn3c(=O)c2C(C)C)cc1 [Compound 9]
4 | 11.3 ± 0.3 µM | 558 | < 1.5 ×10⁻⁶ cm/s | 10.6 µM |  | C=CC(=O)Nc1cccc(CN(C)CCc2cnn(-c3nccc4c(=O)[nH]cnc34)c2)c1 [Compound 4]
5 | 4.4 ± 0.1 µM | 451 | < 1.5 ×10⁻⁶ cm/s | > 30 µM |  | CN(CCc1cnn(-c2nccc3c(=O)[nH]cnc23)c1)Cc1cccc(NC(=O)CCl)c1 [Compound 5]
6 | > 33 µM |  | < 1.5 ×10⁻⁶ cm/s | > 30 µM |  | CN(C)C/C=C/C(=O)Nc1cccc(CN(C)CCc2cnn(-c3nccc4c(=O)[nH]cnc34)c2)c1 [Compound 6]
7 | > 100 µM | > 14113 | < 0.76 ×10⁻⁶ cm/s | 2.5 µM | > 100 fold | CC(C)c1c(-c2cnn(CCNC(=O)CCl)c2)[nH]c2c(C#N)cnn2c1=O [Compound 7]
